From US12240862B2, “Inhibitors of peptidylarginine deiminases” (Gilead Sciences, Inc., priority 2020, dated 2025) come the findings set out here.

This experiment has as its target T1, human PAD4 (Homo sapiens, UniProt Q9UM07).
T1 construct: human PAD4 (NM_012387), A2P663, was PCR amplified; His-SUMO (N, cleaved yes); made in house; host or cells: E. coli BL21(DE3)
The experiment can be described thus: In vitro PAD4 BAEE biochemical assay. The note with it: human PAD4, BAEE substrate; 5 nM PAD4, 2 mM calcium chloride, 3 mM BAEE; geometric mean of multiple experiments. An outline of the steps:
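Tag-free recombinant hPAD4 (5 nM), 2 mM CaCl2, 3 mM BAEE, 50 mM MOPS pH 7.6, 2 mM DTT; 30 min compound preincubation, 2 h reaction, all 25 °C. EDTA quench; ammonia read via o-phthalaldehyde amine coupling, 1 h.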

T1 sequence (Q9UM07 2-663): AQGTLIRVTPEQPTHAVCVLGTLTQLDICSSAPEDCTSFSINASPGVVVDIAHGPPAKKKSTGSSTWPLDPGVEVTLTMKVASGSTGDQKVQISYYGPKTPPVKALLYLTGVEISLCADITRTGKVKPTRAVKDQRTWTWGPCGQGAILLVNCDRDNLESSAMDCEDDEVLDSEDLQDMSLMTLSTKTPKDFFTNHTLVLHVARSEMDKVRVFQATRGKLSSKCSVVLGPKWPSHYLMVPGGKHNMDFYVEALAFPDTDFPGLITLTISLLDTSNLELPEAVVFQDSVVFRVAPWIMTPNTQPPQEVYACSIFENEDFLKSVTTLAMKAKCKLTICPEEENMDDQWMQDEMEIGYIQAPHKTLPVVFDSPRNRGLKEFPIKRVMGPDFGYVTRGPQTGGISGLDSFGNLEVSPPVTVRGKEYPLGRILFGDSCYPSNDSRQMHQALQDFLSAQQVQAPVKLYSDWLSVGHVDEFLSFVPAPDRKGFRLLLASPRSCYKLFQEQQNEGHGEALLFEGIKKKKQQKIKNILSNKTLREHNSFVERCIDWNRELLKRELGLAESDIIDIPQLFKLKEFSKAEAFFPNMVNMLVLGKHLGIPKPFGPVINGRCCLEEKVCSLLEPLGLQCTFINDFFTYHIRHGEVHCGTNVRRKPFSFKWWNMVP

Regarding `COc1cc(C(=O)N2[C@H]3CC[C@@H]2[C@H](N)C3)cc2nc(-c3cc4ccc([C@@H](C)NC(=O)C5(C)CC5)nc4n3CC3CC3)c(C)n12` [Example 151, ~{N}-[(1~{R})-1-[2-[7-[(1~{R},2~{R},4~{S})-2-amino-7-azabicyclo[2.2.1]heptane-7-carbonyl]-5-methoxy-3-methylimidazo [1,2-a]pyridin-2-yl]-1-(cyclopropylmethyl)pyrrolo [2,3-b]pyridin-6-yl]ethyl]-1-methylcyclopropane-1-carboxamide], the IC50 (commonly the concentration that inhibits the measured activity by half) stood at 0.0598 µM.

On to `CCOC(=O)CCC(=O)N[C@H](C)c1ccc2cc(-c3nc4cc(C(=O)N5[C@H]6CC[C@@H]5[C@H](N)C6)cc(OC)n4c3C)n(CC3CC3)c2n1` [Example 152, ethyl 4-[[(1~{R})-1-[2-[7-[(1~{R},2~{R},4~{S})-2-amino-7-azabicyclo[2.2.1]heptane-7-carbonyl]-5-methoxy-3-methylimidazo [1,2-a]pyridin-2-yl]-1-(cyclopropylmethyl)pyrrolo [2,3-b]pyridin-6-yl]ethyl]amino]-4-oxobutanoate], for which the IC50 came to 0.0635 µM. As to `COc1cc(C(=O)N2[C@H]3CC[C@@H]2[C@H](N)C3)cc2nc(-c3cc4ccc([C@@H](C)NC(=O)CCS(C)(=O)=O)nc4n3CC3CC3)c(C)n12` [Example 153, ~{N}-[(1~{R})-1-[2-[7-[(1~{R},2~{R},4~{S})-2-amino-7-azabicyclo[2.2.1]heptane-7-carbonyl]-5-methoxy-3-methylimidazo [1,2-a]pyridin-2-yl]-1-(cyclopropylmethyl)pyrrolo [2,3-b]pyridin-6-yl]ethyl]-3-methylsulfonylpropanamide], the IC50 was 0.0687 µM.

Regarding `COc1cc(C(=O)N2[C@H]3CC[C@@H]2[C@H](N)C3)cc2nc(-c3cc4ccc([C@@H](C)NC(=O)CS(C)(=O)=O)nc4n3CC3CC3)c(C)n12` [Example 154, ~{N}-[(1~{R})-1-[2-[7-[(1~{R},2~{R},4~{S})-2-amino-7-azabicyclo[2.2.1]heptane-7-carbonyl]-5-methoxy-3-methylimidazo [1,2-a]pyridin-2-yl]-1-(cyclopropylmethyl)pyrrolo[2,3-b]pyridin-6-yl]ethyl]-2-methylsulfonylacetamide], the IC50 is 0.0534 µM. Then `COc1cc(C(=O)N2[C@H]3CC[C@@H]2[C@H](N)C3)cc2nc(-c3cc4ccc([C@@H](C)NC(=O)C(C)(C)C(=O)O)nc4n3CC3CC3)c(C)n12` [Example 155, 3-[[(1~{R})-1-[2-[7-[(1~{R},2~{R},4~{S})-2-amino-7-azabicyclo[2.2.1]heptane-7-carbonyl]-5-methoxy-3-methylimidazo [1,2-a]pyridin-2-yl]-1-(cyclopropylmethyl)pyrrolo [2,3-b]pyridin-6-yl]ethyl]amino]-2,2-dimethyl-3-oxopropanoic acid], with 0.0455 µM. As for `COc1cc(C(=O)N2[C@H]3CC[C@@H]2[C@H](N)C3)cc2nc(-c3cc4ccc([C@@H](C)NC(=O)CCC(=O)NS(=O)(=O)c5ccccc5)nc4n3CC3CC3)c(C)n12` [Example 156, ~{N}-[(1~{R})-1-[2-[7-[(1~{R},2~{R},4~{S})-2-amino-7-azabicyclo[2.2.1]heptane-7-carbonyl]-5-methoxy-3-methylimidazo [1,2-a]pyridin-2-yl]-1-(cyclopropylmethyl)pyrrolo [2,3-b]pyridin-6-yl]ethyl]-~{N}′-(benzenesulfonyl) butanediamide], the figure is 0.0203 µM; as for `COc1cc(C(=O)N2[C@H]3CC[C@@H]2[C@H](N)C3)cc2nc(-c3cc4ccc([C@@H](C)NC(=O)C56CC(C(F)(F)F)(C5)C6)nc4n3CC3CC3)c(C)n12` [Example 157, ~{N}-[(1~{R})-1-[2-[7-[(1~{R},2~{R},4~{S})-2-amino-7-azabicyclo[2.2.1]heptane-7-carbonyl]-5-methoxy-3-methylimidazo [1,2-a]pyridin-2-yl]-1-(cyclopropylmethyl)pyrrolo [2,3-b]pyridin-6-yl]ethyl]-3-(trifluoromethyl)bicyclo [1.1.1]pentane-1-carboxamide], 0.133 µM; as for `COc1cc(C(=O)N2[C@H]3CC[C@@H]2[C@H](N)C3)cc2nc(-c3cc4ccc([C@@H](C)NC(=O)C56CC(C#N)(C5)C6)nc4n3CC3CC3)c(C)n12` [Example 158, ~{N}-[(1~{R})-1-[2-[7-[(1~{R},2~{R},4~{S})-2-amino-7-azabicyclo[2.2.1]heptane-7-carbonyl]-5-methoxy-3-methylimidazo [1,2-a]pyridin-2-yl]-1-(cyclopropylmethyl)pyrrolo [2,3-b]pyridin-6-yl]ethyl]-3-cyanobicyclo[1.1.1]pentane-1-carboxamide], 0.0738 µM. Then `COC(=O)C12CC(C(=O)N[C@H](C)c3ccc4cc(-c5nc6cc(C(=O)N7[C@H]8CC[C@@H]7[C@H](N)C8)cc(OC)n6c5C)n(CC5CC5)c4n3)(C1)C2` [Example 159, methyl 3-[[(1~{R})-1-[2-[7-[(1~{R},2~{R},4~{S})-2-amino-7-azabicyclo[2.2.1]heptane-7-carbonyl]-5-methoxy-3-methylimidazo [1,2-a]pyridin-2-yl]-1-(cyclopropylmethyl)pyrrolo [2,3-b]pyridin-6-yl]ethyl]carbamoyl]bicyclo[1.1.1] pentane-1-carboxylate], with 0.0583 µM.

Regarding `COc1cc(C(=O)N2[C@H]3CC[C@@H]2[C@H](N)C3)cc2nc(-c3cc4ccc([C@@H](C)NC(=O)C56CC(C5)C6)nc4n3CC3CC3)c(C)n12` [Example 160, ~{N}-[(1~{R})-1-[2-[7-[(1~{R},2~{R},4~{S})-2-amino-7-azabicyclo[2.2.1]heptane-7-carbonyl]-5-methoxy-3-methylimidazo [1,2-a]pyridin-2-yl]-1-(cyclopropylmethyl)pyrrolo [2,3-b]pyridin-6-yl]ethyl]bicyclo[1.1.1]pentane-1-carboxamide], the half-maximal inhibitory concentration (IC50) stood at 0.0532 µM. As for `COc1cc(C(=O)N2[C@H]3CC[C@@H]2[C@H](N)C3)cc2nc(-c3cc4ccc([C@@H](C)NC(=O)CC(C)(C)C(=O)O)nc4n3CC3CC3)c(C)n12` [Example 161, 4-[[(1~{R})-1-[2-[7-[(1~{R},2~{R},4~{S})-2-amino-7-azabicyclo[2.2.1]heptane-7-carbonyl]-5-methoxy-3-methylimidazo [1,2-a]pyridin-2-yl]-1-(cyclopropylmethyl)pyrrolo [2,3-b]pyridin-6-yl]ethyl]amino]-2,2-dimethyl-4-oxobutanoic acid], the figure is 0.0798 µM; as for `COc1cc(C(=O)N2[C@H]3CC[C@@H]2[C@H](N)C3)cc2nc(-c3cc4ccc([C@@H](C)NC(=O)C(F)(F)F)nc4n3CC3CC3)c(C)n12` [Example 162, ~{N}-[(1~{R})-1-[2-[7-[(1~{R},2~{R},4~{S})-2-amino-7-azabicyclo[2.2.1]heptane-7-carbonyl]-5-methoxy-3-methylimidazo [1,2-a]pyridin-2-yl]-1-(cyclopropylmethyl)pyrrolo [2,3-b]pyridin-6-yl]ethyl]-2,2,2-trifluoroacetamide], 0.0991 µM; as for `COc1cc(C(=O)N2[C@H]3CC[C@@H]2[C@H](N)C3)cc2nc(-c3cc4ccc([C@@H](C)NC(=O)CCC(=O)O)nc4n3CC3CC3)c(C)n12` [Example 163, 4-[[(1~{R})-1-[2-[7-[(1~{R},2~{R},4~{S})-2-amino-7-azabicyclo[2.2.1]heptane-7-carbonyl]-5-methoxy-3-methylimidazo [1,2-a]pyridin-2-yl]-1-(cyclopropylmethyl)pyrrolo [2,3-b]pyridin-6-yl]ethyl]amino]-4-oxobutanoic acid], 0.0191 µM.
